Like-named read-outs stand apart in the source and are kept apart here.
What was measured:
[1] = First in human single ascending dose and food effect PK study of JOTROL, plasma; details: for AUC(0-t) / Cmax / Tmax / half-life / AUC(0-inf) / k el: both, human; for AUC(0-inf): AUC0-inf; for k el: Kel
Experimental: A total of 24 healthy, adult male or female volunteers were included in study part 1. […] A food effect arm was also included as part 2. […] Given that the in life portion of the study was done during the pandemic, total number, gender, ethnicity, etc., of the subjects was not mandated. A total of 4 study periods were included in this study with washout of at least 14 days between doses. […] After the completion of each cohort, an evaluation of the safety data was performed prior to determining whether to proceed with enrollment for the next scheduled dose level, to modify the dose, or to discontinue the study. […] The aliquots were transferred to a - 80 °C freezer (no more than 60 min passed between the start of centrifugation and aliquot storage), pending analysis/shipment to the analytical facility. […] Samples are extracted by a protein precipitation extraction procedure, and the compounds are detected and quantified by tandem mass spectrometry in positive ion mode on an MDS Sciex API 6500+ equipped with a Turbo Ionspray® interface. […] All concentration values that were below the lower limit of quantification (BLQ) occurring prior to dosing as well as samples with no reportable value (NRV) occurring prior to dosing were replaced by “0.00”; otherwise, they (BLQ and NRV) were set to missing for tabulation, graphical representation, and calculation purposes. PK analyses were performed using Phoenix WinNonlin® version 8.2, which was validated by Syneos Health. The WinNonlin noncompartmental analysis (NCA) module was used [NT]0-t (last detectable concentration), AUC0-inf (infinity), residual area (%), Cmax, Tmax, T1/2 el (elimination half-life), and Kel (elimination rate constant). […] Power model included the PK parameter as the response variable and dose (mg) as the explanatory variable. For this model, the variable dose was treated as a continuous variable. For evaluation of the food-effect, PK data (ln-transformed AUC0-t, AUC0-inf, Cmax and untransformed Tmax) reported under fed conditions (Period 4) and under fasting conditions (for the same dose level) were compared using analysis of variance (ANOVA) from SAS®. The ratio (fed/fasting) and 90% geometric CI were also calculated for AUC0-t, AUC0-inf, and Cmax.

[2] = cited from earlier work
[3] = First in human PK study of JOTROL, urine excretion; type: in vivo; details: for CL renal: human, urine
Experimental: For day 2 (24 h post-dose) urine collection, subjects were asked to void their bladder within 15 min before the end of the collection interval (12–24 h). For other collections, subjects were asked to void their bladder within 10 min before the end of each collection interval. Urine voided at the intersection of two intervals was included in the earlier interval. Any urine voided by subjects but not collected was documented.
The volume of urine collected in each interval was measured (individual urine volumes are on file), and two aliquots of equal volume were dispensed into polypropylene tubes for each interval. Aliquots were stored in a − 80 °C freezer, pending analysis; remaining urine from each subject was discarded.

[4] = plasma, po, 200 mg, resveratrol in plasma, mean, Treatment A: JOTROL 200 mg single oral dose, fasting
[5] = plasma, po, 500 mg, resveratrol in plasma, mean, Treatment B: JOTROL 500 mg single oral dose, fasting
[6] = plasma, po, 500 mg, resveratrol in plasma, mean, Treatment D: JOTROL 500 mg single oral dose, fed (high-fat meal)
[7] = plasma, po, 700 mg, resveratrol in plasma, mean, Treatment C: JOTROL 700 mg single oral dose, fasting
[8] = 500 mg caplets, 5 g, mean ± SD, ref Boocock et al. ([2007])
[9] = 500 mg caplets, 5 g, mean ± SD, ref Brown et al. ([2010])
[10] = Friedreich's ataxia study, ref Yiu et al. ([2015])

## O=S(=O)(O)Oc1cc(O)cc(C=Cc2ccc(O)cc2)c1 [resveratrol-3-sulfate]
[1]; JOTROL 500 mg fed vs fasting
  Effect of food consumption on metabolite concentrations: significantly decreased
[1]; plasma, oral, Mean AUC0-t, range over doses, metabolite in plasma, increasing JOTROL (resveratrol) doses
  AUC(0-t): 12000 to 54500 ng·h/mL
[1]; plasma, oral, Mean Cmax, range over doses, metabolite in plasma, increasing JOTROL (resveratrol) doses
  Cmax: 6620 to 23600 ng/mL

## Oc1ccc(/C=C/c2cc(O)cc(O)c2)cc1 [micronized resveratrol]
[2]; human, in vivo, po
  Absorption: ~ 70%

## Oc1ccc(/C=C/c2cc(O)cc(O)c2)cc1 [Resveratrol, 3,5,4′-stilbenotriol]
[3]; oral, resveratrol after JOTROL 200 to 700 mg, read-out: Renal clearance, range over treatments
  CL renal: 2.33 to 4.17 mL/min
[3]; oral, resveratrol after JOTROL, conversion of 0.14 to 0.25 L/h, read-out: Renal clearance
  CL renal: ~4 mL/min
[3]; po, 200 mg, resveratrol renal clearance, mean, Treatment A: JOTROL 200 mg single oral dose, fasting, read-out: CLR (converted)
  CL renal: 4.17 mL/min
[3]; po, 500 mg, resveratrol renal clearance, mean, Treatment B: JOTROL 500 mg single oral dose, fasting, read-out: CLR (converted)
  CL renal: 2.33 mL/min
[3]; po, 700 mg, resveratrol renal clearance, mean, Treatment C: JOTROL 700 mg single oral dose, fasting, read-out: CLR (converted)
  CL renal: 3.17 mL/min
[3]; resveratrol after JOTROL
  Renal clearance as share of GFR: 3 % of GFR
[3]; resveratrol in urine, mean, Treatment A: JOTROL 200 mg single oral dose, fasting
  TRmax: 1.5 h
[1]; JOTROL 500 mg fed vs fasting
  Delay of the peak concentration by food: approximately 30 min
[1]; JOTROL 200, 500, 700 mg fasting
  Dose proportionality of AUC0-t and Cmax (power model): higher than expected if dose proportional
[1]; all JOTROL doses, p = 0.011
  Gender differences in the exposure of resveratrol: mean female AUC values tend to be higher than male values
[1]; in vivo, po, 500 mg
  Tmax: 1 h
[1]; plasma, oral
  Tmax: ~1 h
[1]; plasma, oral, Mean AUC0-t, range over doses, resveratrol in plasma, JOTROL 200 to 700 mg, fasting
  AUC(0-t): 149 to 886 ng·h/mL
[1]; plasma, oral, T½, resveratrol in plasma after JOTROL, N low, interpret with caution
  half-life: ~2 h
[1]; plasma, po, 200 mg
  Tmax: 0.999 h
[1]; [4]
  AUC(0-inf): 215 ng·h/mL
  k el: 0.000153 s⁻¹
[1]; plasma, po, 200 mg, AUC0-t, resveratrol in plasma, mean, Treatment A: JOTROL 200 mg single oral dose, fasting
  AUC(0-t): 149 ng·h/mL
[1]; plasma, po, 200 mg, T1/2 el, resveratrol in plasma, mean, Treatment A: JOTROL 200 mg single oral dose, fasting
  half-life: 1.26 h
[1]; [5]
  AUC(0-inf): 574 ng·h/mL
  k el: 9.22e-05 s⁻¹
[1]; [6]
  AUC(0-inf): 613 ng·h/mL
  k el: 0.000152 s⁻¹
[1]; plasma, po, 500 mg, AUC0-t, resveratrol in plasma, mean, Treatment B: JOTROL 500 mg single oral dose, fasting
  AUC(0-t): 480 ng·h/mL
[1]; plasma, po, 500 mg, AUC0-t, resveratrol in plasma, mean, Treatment D: JOTROL 500 mg single oral dose, fed (high-fat meal)
  AUC(0-t): 306 ng·h/mL
[1]; plasma, po, 500 mg, Cmax, resveratrol in plasma, mean, Treatment B: JOTROL 500 mg single oral dose, fasting
  Cmax: 455 ng/mL
[1]; plasma, po, 500 mg, T1/2 el, resveratrol in plasma, mean, Treatment B: JOTROL 500 mg single oral dose, fasting
  half-life: 2.74 h
[1]; plasma, po, 500 mg, T1/2 el, resveratrol in plasma, mean, Treatment D: JOTROL 500 mg single oral dose, fed (high-fat meal)
  half-life: 1.71 h
[1]; plasma, po, 700 mg
  Tmax: 1.02 h
[1]; [7]
  AUC(0-inf): 611 ng·h/mL
  k el: 0.000126 s⁻¹
[1]; plasma, po, 700 mg, AUC0-t, resveratrol in plasma, mean, Treatment C: JOTROL 700 mg single oral dose, fasting
  AUC(0-t): 886 ng·h/mL
[1]; plasma, po, 700 mg, Cmax, resveratrol in plasma, mean, Treatment C: JOTROL 700 mg single oral dose, fasting
  Cmax: 805 ng/mL
[1]; plasma, po, 700 mg, T1/2 el, resveratrol in plasma, mean, Treatment C: JOTROL 700 mg single oral dose, fasting
  half-life: 1.6 h
[1]; resveratrol in plasma, mean, Treatment D: JOTROL 500 mg single oral dose, fed (high-fat meal)
  Residual Area: 3.7%
[2]; 25 mg (overnight fast +3 h), radiolabeled dose, ref Walle et al. ([2004])
  Cmax: < 5 ng/mL
[2]; 500 mg caplets, 5 g, AUC to infinity, mean ± SD, ref Boocock et al. ([2007])
  AUC: 1319 ± 780 ng·h/mL
[2]; [8]
  Cmax: 538 ± 391 ng/mL
  t1/2: 8.5 ± 8.2 h
[2]; [9]
  AUC: 4097 ± 4384 ng·h/mL
  Cmax: 967 ± 517 ng/mL
  t1/2: 7.85 ± 1.97 h
[2]; 1 g encapsulated dose, ref Turner et al., Neurology 85:1383-91, 2015
  Cmax: 85 ng/mL
[2]; 2 g, 500 mg encapsulated, mean ± SD, ref Turner et al. ([2015])
  Cmax: 85 ± 184 ng/mL
[2]; 2 g, 500 mg encapsulated, ref Turner et al. ([2015])
  t1/2: 15 h
[2]; 2.5 g micronized dose, ref Howells et al., Cancer Prev Res (Phila) 4:1419-1425, 2011
  Cmax: 1942 ng/mL
[2]; 3,000 mg/day of unmodified resveratrol, healthy volunteers, ref published data
  AUC exposure (estimated): 2100 ng·h/mL
[2]; Alzheimer's trial, ref Turner et al. [2015], Moussa et al. [2017], Sawda et al. [2017]
  Plasma Cmax associated with positive biomarker outcomes (amyloid beta, inflammation modulators): 85 ng/mL
[2]; [10]
  Nominal mean plasma Cmax not associated with any efficacy: 128 ng/mL
  Nominal plasma mean Cmax associated with positive clinical outcomes: 261 ng/mL

From paper PMC9243782 (Aaps Open, 2022)
